According to US10603357B2, “Therapeutic TREM-1 peptides” (Universite de Lorraine, priority 2004, dated 2020):

B1: IL-10: rIL-10 (500 U/ml, R&D Systems) (protein, UniProt P22301 19-178, looked up)
Interleukin-10: SPGQGTQSENSCTHFPGNLPNMLRDLRDAFSRVKTFFQMKDQLDNLLLKESLLEDFKGYLGCQALSEMIQFYLEEVMPQAENQDPDIKAHVNSLGENLKTLRLRLRRCHRFLPCENKSKAVEQVKNAFNKLQEKGIYKAMSEFDIFINYIEAYMTMKIRN

Columns and labels:
BALB/c mice [1] = assay: LPS-induced endotoxaemia, survival of mice (Example 1); assay type: in vivo, mouse
Method: BALB/c mice (10 per group) were injected intraperitoneally with 200 μg LPS. The TREM-1 peptides P1, P2, P3, or P5 (200 μl of a 300 μM solution per mouse) were injected intraperitoneally 1 hour before LPS. Viability of mice was monitored twice a day for 7 days. Statistical analysis was performed by Logrank test. Data from control mice represent cumulative survival curves from two independent experiments performed under identical conditions.
BALB/c mice (10 per group) were injected intraperitoneally with 200 μg LPS. TREM-1 peptide P1, 200 μl of a 300 μM solution per mouse was injected intraperitoneally 1 hour before or 4 hours after LPS. Viability of mice was monitored twice a day for 7 days. Statistical analysis was performed with the Logrank test. Data from control mice represent cumulative survival curves from two independent experiments performed under identical conditions
BALB/c mice (10 per group) were injected intraperitoneally with 200 μg LPS. P1 peptide, 200 μl of a 150, 300 and 600 μM solution per mouse (dots) or P3, 200 μl of a 600 μM solution per mouse (filled squares) were injected intraperitoneally 4 hours after LPS. Viability of mice was monitored twice a day for 7 days. Statistical analysis was performed with the Logrank test
In the experiments of this example, the peptides were administered in a volume of 200 μl of the solution molarity indicated. To assess the ability of TREM1-peptides to protect mice from LPS-induced endotoxaemia, the Inventors administered peptides P1, P2, P3 and P5 (300 μM) 1 hour before a lethal dose of lipopolysaccharide (LPS) (FIG. 2). Lethality was monitored over time and compared with animals that had received control injections of vehicle alone. P5 injection confers maximal protection, with 90% of the animals still alive 7 days after LPS injection, as compared with 10% of control mice (p<0.001). 60% of the P1-treated mice and 50% of the P2 treated mice survived endotoxaemia as compared with 10% of control mice (p<0.01 and p<0.05 respectively).
In order to investigate whether TREM-1 peptide treatment could be delayed until after the administration of LPS, the Inventors injected the peptides at 4 hours after LPS injection. […] 80% of the mice injected with P1 4 hours after LPS survived endotoxaemia compared to 60% of mice treated 1 h before LPS and 10% of mice treated with vehicle alone (p<0.001 and p<0.01 respectively). Thus, P1 is effective even when injected after the outbreak of endotoxaemia. […] P1 administration conferred maximal protection (80%) when administered at 600 μM (p<0.01) and the level of protection dropped to 50% at 300 μM (p<0.05) and further down to 30% at 150 μM as compared to 20% of control mice, indicating a dose dependent effect of P1 (FIG. 4). The Inventors then investigated whether P1 protects against septic shock in the “CLP” model (Cecal Ligation and Puncture is a widely used experimental model of sepsis). Mice treated with two doses of P1 at 5 and 24 hours after CLP were protected from death as compared to control treated mice (p=0.0791) although the difference was not statistically significant. 40% of the mice injected with P1 at 5 days after CLP survived compared to 5% of mice treated with P3 peptide.

[2] = system: TREM-1/TREM-1 ligand interaction; assay: competition of soluble mouse TREM-1/IgG1 binding to TREM-1 ligand positive peritoneal exudate cells (flow cytometry); settings: peptides 100 and 500 μM, pre-incubated 45 minutes on ice; 2 μg/ml mouseTREM-1/hIgG1
Method: Cytofluorimetric analysis of peritoneal exudate cells with 2 μg/ml of mouseTREM-1/hIgG1 in the presence of a 500 μM solution per mouse (thin line), 100 μM solution per mouse (dotted line) or absence (thick line) of the peptides is shown. The grey histogram represents immunostaining with human IgG1 as a control.
A possible mechanism of action could be the ability of TREM-1 derived peptide to interfere with TREM-1/TREM-1 ligand interaction. To address this question the Inventors performed competition experiments on TREM-1 ligand positive cells: PEC (Peritoneal Exudate Cells) from CLP treated mice.
Peritoneal exudate cells (PEC) from mice suffering from a caecal ligation and puncture (CLP)-induced peritonitis were subjected to flow cytometry analysis after incubation with a PE-conjugated anti-human IgG1 (Jackson Immunoresearch, Bar Harbor, USA). Competition with TREM-1 peptides was performed by pre-incubating cells with the indicated concentrations of peptides for 45 minutes on ice before adding mTREM-1-IgG1.

human monocytes = assay: in vitro stimulation of monocytes: TNF-α, IL-1β and sTREM-1 release; assay type: cell-based; settings: P5 or control peptide 10 to 100 ng/mL, rIL-10 500 U/mL; for TNF-α and IL-1β production (release of inflammatory cytokines) in monocyte supernatant: LPS 1 μg/mL or LPS + anti-TREM-1 mAb; for release of sTREM-1 from monocytes cultured with LPS: LPS 1 μg/mL
Method: For cell activation, primary monocytes were cultured in 24-well flat-bottom tissue culture plates in the presence of LPS (1 μg/mL). In some experiments this stimulus was provided in combination with P5 (10 to 100 ng/mL), control peptide (10 to 100 ng/mL) or rIL-10 (500 U/mL). To activate monocytes through TREM-1, an agonist anti-TREM-1 mAb (10 μg/mL) was added as indicated. Cell-free supernatants were analysed for production of TNF-α, IL-1β. and sTREM-1 by ELISA or immunodot. All experiments were performed in triplicate and data are expressed as means (SEM). • a: Media • b: P5 10 ng/mL • c: Anti-TREM-1 • d: LPS • e: LPS+Anti-TREM-1 • f: LPS+P5 10 ng/mL • g: LPS+P5 50 ng/mL • h: LPS+P5 100 ng/mL • i: LPS+IL10
Ten mL of peripheral blood samples were collected on EDTA-K from 5 healthy volunteer donors originating from laboratory staff. After dilution in RPMI (Life Technologies, Grand Island, N.Y.) v/v, blood was centrifuged for 30 min at room temperature over a Ficoll gradient (Amersham Pharmacia, Uppsala, Sweden) to isolate PBMC. The cells recovered above the gradient were washed and counted. In order to deplete the suspensions of lymphocytes, cells were then plated in 24-well flat-bottom tissue culture plates (Corning, Corning, N.Y.) at a concentration of 5×10^6/mL and allowed to adhere during 2 hours at 37° C. The resulting lymphocyte suspension was discarded and the adhering monocytic cells were maintained in a 5% CO2 incubator at 37° C. in complete medium (RPMI 1640, 0.1 mM sodium pyruvate, […], 50 μg/mL Streptomycin; Life Technologies) supplemented with 10% FCS (Invitrogen, Cergy, France).
For activation, monocytes were cultured in the presence of E. coli LPS (0111:B4, 1 μg/mL, Sigma-Aldrich, La Verpillière, France). Cell viability was assessed by trypan blue exclusion and by measuring lactate dehydrogenase release. In some experiments, this stimulus was given in combination with TNF-α (5 to 100 ng/mL, R&D Systems, Lille, France), IL-1β (5 to 100 ng/mL, R&D Systems), rIFN-γ (up to 100 U/mL, R&D Systems), rIL-10 (500 U/ml, R&D Systems) or up to 100 ng/mL of P5 or control peptide.
In order to activate monocytes through TREM-1, an anti-TREM-1 agonist monoclonal antibody (R&D Systems) was added as follows: flat-bottom plates were precoated with 10 μg/mL anti-TREM-1 per well. After thorough washing in phosphate buffered saline (PBS), the monocyte suspensions were added at a similar concentration as above. Some experiments were performed in the presence of protease inhibitors (PMSF and Protease Cocktail Inhibitor; Invitrogen). Cell-free supernatants were assayed for the production of TNF-α and IL-1β by ELISA according to the recommendations of the manufacturer (BD Biosciences, San Diego, USA). To address the effect of P5 on NF-κB activity in monocytes, an ELISA-based assay was performed (BD Mercury™ Transfactor Kit, BD Biosciences). Monocytes were cultured for 24 hours in the presence of E. coli LPS (O111:B4, 1 μg/mL), and/or an agonist anti-TREM-1 monoclonal antibody (10 μg/mL), and/or P5 (100 ng/mL). Whole-cell extracts were then prepared and levels of NF-κB p50 and p65 were determined according to the recommendations of the manufacturer. All experiments were performed in triplicate and data are expressed as means (SEM). Identification and Quantitation of sTREM-1 Release
Primary monocytes suspensions were cultured as described above. The cells were treated with E. coli LPS (0111:B4, 1 μg/mL) for 24 hours at 37° C. Cell-conditioned medium was submitted to Western-blotting using an anti-TREM-1 monoclonal antibody (R&D Systems) in order to confirm the presence of 27 kDa material recognized by anti-TREM-1. Soluble TREM-1 levels were measured by assessing the optical intensity of bands on immunodots by means of a reflectance scanner and the Quantity One Quantitation Software (Bio-Rad, Cergy, France) as reported elsewhere (18). […]

BALB/c mice [3] = assay: CLP polymicrobial sepsis model in mice (Example 3); assay type: in vivo, mouse; settings: 24 hours after CLP; control peptide, dose not given in table (100 μg in source)
Method: Male Balb/C mice (20 to 23 g) were randomly grouped and treated with normal saline (n=14) or the control peptide (n=14, 100 μg) or with P5 (100 μg) in a single infection at HO (n=18), H+4 (n=18) or H+24 (n=18). The last group of mice (n=18) was treated with repeated injections of P5 (100 μg) at H+4, H+8 and H+24.
Mice (n=15 per group) were treated with a single injection of normal saline or 10 μg, 20 μg, 50 μg, 100 μg or 200 μg of P5 at HO after the CLP and monitored for survival.
Mice (5 per group) were killed under anaesthesia at 24 hours after CLP. Bacterial counts in peritoneal lavage fluid and blood were determined and results are expressed as CFU per mL of blood and CFU per mouse for the peritoneal lavage.
Male Balb/C mice (7 to 9 weeks, 20 to 23 g) were anaesthetized by i.p. administration of ketamine and xylazine in 0.2 mL sterile pyrogen-free saline. The caecum was exposed through a 1.0 cm abdominal midline incision and subjected to a ligation of the distal half followed by two punctures with a G21 needle. A small amount of stool was expelled from the punctures to ensure patency. The caecum was replaced into the peritoneal cavity and the abdominal incision closed in two layers. After surgery all mice were injected s.c. with 0.5 ml of physiologic saline solution for fluid resuscitation and s.c. every 12 h with 1.25 mg (i.e. 50 μg/g) of imipenem. The animals were randomly grouped and treated with normal saline (n=14), the control peptide (n=14, 100 μg) or P5 (100 μg) in a single injection at HO (n=18), H+4 (n=18) or H+24 (n=18). The last group of mice (n=18) was treated with repeated injections of P5 (100 μg) at H+4, H+8 and H+24. All treatments were diluted into 500 μl of normal saline and administered i.p. The Inventors next sought to determine the effect of various doses of P5. For this purpose, mice (n=15 per group) were treated with a single injection of normal saline or 10 μg, 20 μg, 50 μg 100 μg or 200 μg of P5 at HO after the CLP and monitored for survival. Five additional animals per group were killed under anaesthesia 24 hours after CLP for the determination of bacterial count and cytokines levels. Peritoneal lavage fluid was obtained using 2 mL RPMI 1640 (Life Technologies) and blood was collected by cardiac puncture. Concentrations of TNF-α and IL-1β in the serum were determined by ELISA (BD Biosciences). For the assessment of bacterial counts, blood and peritoneal lavage fluid were plated in serial log dilutions on tryptic soy supplemented with 5% sheep blood agar plates. After plating, tryptic soy agar plates were incubated at 37° C. aerobically for 24 hours, and anaerobically for 48 hours. Results are expressed as CFU per mL of blood and CFU per mouse for the peritoneal lavage.

C57BL/6 mice = assay: cecal ligation and puncture (CLP), survival of mice (Example 1); assay type: in vivo, mouse; settings: 200 μl of 600 μM i.p. 5 and 24 hours after CLP; 5 days after CLP; 15 per group
Method: CLP was induced in C57BL/6 mice (15 per group) as described in Materials and Methods. P1 peptide (empty dots) or P3 peptide (filled squares) (200 μl of a 600 μM solution per mouse) were injected intraperitoneally 5 and 24 hours after CLP induction. Viability of mice was monitored twice a day for 10 days. Statistical analysis was performed with the Logrank test.
In order to investigate whether TREM-1 peptide treatment could be delayed until after the administration of LPS, the Inventors injected the peptides at 4 hours after LPS injection. […] 80% of the mice injected with P1 4 hours after LPS survived endotoxaemia compared to 60% of mice treated 1 h before LPS and 10% of mice treated with vehicle alone (p<0.001 and p<0.01 respectively). Thus, P1 is effective even when injected after the outbreak of endotoxaemia. […] P1 administration conferred maximal protection (80%) when administered at 600 μM (p<0.01) and the level of protection dropped to 50% at 300 μM (p<0.05) and further down to 30% at 150 μM as compared to 20% of control mice, indicating a dose dependent effect of P1 (FIG. 4). The Inventors then investigated whether P1 protects against septic shock in the “CLP” model (Cecal Ligation and Puncture is a widely used experimental model of sepsis). […]

Molecule	inhibition of TREM-1 interaction with its ligand (mTREM-1/IgG1 binding to PEC) [2]	TNF-α and IL-1β production (release of inflammatory cytokines) in monocyte supernatant (human monocytes)	release of sTREM-1 from monocytes cultured with LPS (human monocytes)	further results
VIYHPPNDPVVLFHPVRLVVTKG (listed as Mus musculus) [P2]	inhibit TREM-1 interaction with its ligand in a dose dependent manner	–	–	animals alive 7 days after LPS injection (BALB/c mice [1]; 200 μl of 300 μM peptide i.p. 1 hour before 200 μg LPS i.p., 10 mice per group (FIG. 2, 3)): 50%
TDSRCVIGLYHPPLQVY [P5sc, reference compound]	–	no action	no action	Serum IL-1β (BALB/c mice [3]): 841 ± 204 pg/mL; Serum TNF-α (BALB/c mice [3]): 105 ± 12 pg/mL; Serum sTREM-1 (BALB/c mice [3]): 52 ± 3 ng/mL
TTTRSLPKPTAVVSSPG [P3]	ineffective	–	–	time within which all treated mice died after LPS injection (BALB/c mice [1]; 200 μl of 300 μM peptide i.p. 1 hour before LPS): ≤ 4 days; mice surviving after CLP (C57BL/6 mice): 5%
B1	–	totally inhibited	totally inhibited	–
